Test results published in ChEMBL document CHEMBL3137667, “[Drug-induced liver injury; fourteenth updated edition of the bibliographic database of liver injuries and related drugs]” (Gastroenterol Clin Biol, 2004).

Tests used:
[1] = human
[2] = Highest frequency of acute liver toxicity observed during clinical trials, expressed as a percentage. [column '% AIGUE' in source]; conditions: human
[3] = human, serum
[4] = human, serum; remark: listed apart in the source
[5] = human; remark: listed apart in the source
[6] = human, serum, 4383 h
[7] = human; remark: listed apart in the source
[8] = human; remark: listed apart in the source
[9] = human; remark: listed apart in the source
[10] = human; remark: listed apart in the source
[11] = Highest frequency of moderate liver toxicity observed during clinical trials, expressed as a percentage. [column '% BIOL' in source]; conditions: human
[12] = human; remark: listed apart in the source
[13] = human; remark: listed apart in the source
[14] = human; remark: listed apart in the source
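For Hepatotoxicity (association with vascular disease) in this document: count of indexed literature references reporting vascular liver injury in humans, e.g. peliosis hepatitis, hepatic veno-occlusive disease or Budd-Chiari syndrome.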
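For Hepatotoxicity (benign tumour) in this document: value is a count of indexed literature references citing a benign tumour confirmed by histopathology.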
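For Hepatotoxicity (choleostasis) in this document: human cholestatic liver injury, shown by histopathology or by peak ALT or AST elevation over alkaline phosphatase ratio below 2, value counts indexed literature reports.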
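For Hepatotoxicity (chronic liver disease) in this document: chronic liver injury confirmed by histopathology or persistently raised serum aminotransferase activity beyond 6 months, value given as the count of indexed literature references.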
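For Hepatotoxicity (cirrhosis) in this document: value is a count of indexed literature references reporting cirrhosis confirmed by histopathology.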
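For Hepatotoxicity (cytolytic) in this document: human cytolytic liver injury, shown by histopathology or by a ratio above 5 of peak ALT or AST elevation to alkaline phosphatase elevation, value counts indexed references.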
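For Hepatotoxicity (granulomatous hepatitis) in this document: value is a count of indexed literature references reporting granulomatous liver disease confirmed by histopathology.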
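For Hepatotoxicity (malignant tumour) in this document: malignant tumour confirmed by histopathology, value gives the count of indexed literature references reporting it.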
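For Hepatotoxicity (severe hepatitis) in this document: human clinical data: severe hepatitis, meaning potentially life-threatening liver failure or clinically observed cases, the value counts how many indexed literature references report it.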
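For Hepatotoxicity (steatosis) in this document: steatosis confirmed by histopathology, value is the count of indexed references.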

Row | SMILES | Hepatotoxicity (steatosis) [1] | Hepatotoxicity (acute) [2] [%] | Hepatotoxicity (moderate) [3] | Hepatotoxicity (acute) [4] | Hepatotoxicity (malignant tumour) [5] | Hepatotoxicity (chronic liver disease) [6] | Hepatotoxicity (association with vascular disease) [7] | Hepatotoxicity (choleostasis) [8] | Hepatotoxicity (benign tumour) [9] | Hepatotoxicity (cytolytic) [10] | Hepatotoxicity (moderate) [11] [%] | Hepatotoxicity (cirrhosis) [12] | Hepatotoxicity (granulomatous hepatitis) [13] | Hepatotoxicity (severe hepatitis) [14]
1 | CCNNC(=O)[C@@H]1[C@H](c2cc(OC)c(OC)c(OC)c2)c2cc3c(cc2[C@H](O)[C@H]1CO)OCO3 [MITOPODOZIDE] | 0 | 0 | 1 | 0 | 0 | 0 | 0 | 0 | 0 | 0 | 1.3 | 0 | 0 | 0
2 | COc1ccc(-c2noc(CC(=O)O)c2-c2ccc(OC)cc2)cc1 [MOFEZOLAC] | 0 | 0 | 1 | 0 | 0 | 0 | 0 | 0 | 0 | 0 | 0 | 0 | 0 | 0
3 | O=C(CCCN1CCN(c2ccc(F)cc2)CC1)NC1c2ccccc2CSc2ccccc21 (stereo unspecified) [MONATEPIL] | 0 | 0 | 1 | 0 | 0 | 0 | 0 | 0 | 0 | 0 | 4.5 | 0 | 0 | 0
4 | CO[C@@]1(NC(=O)C(C(=O)[O-])c2ccc(O)cc2)C(=O)N2C(C(=O)[O-])=C(CSc3nnnn3C)CO[C@@H]21.[Na+].[Na+] (stereo partly specified) [MOXALACTAM DISODIUM] | 0 | 3.3 | 13 | 1 | 0 | 0 | 0 | 1 | 0 | 0 | 36.5 | 0 | 0 | 0
5 | COc1ccc2cc(CCC(C)=O)ccc2c1 [NABUMETONE] | 0 | 0 | 8 | 1 | 0 | 0 | 0 | 0 | 0 | 1 | 4.5 | 0 | 0 | 0
6 | C/N=C(/Cc1ccc2ccccc2c1)NC [NAPACTADINE] | 0 | 0 | 1 | 0 | 0 | 0 | 0 | 0 | 0 | 0 | 0 | 0 | 0 | 0
7 | CCCN1CCO[C@@H]2c3cc(O)ccc3CC[C@H]21 [NAXAGOLIDE] | 0 | 0 | 1 | 0 | 0 | 0 | 0 | 0 | 0 | 0 | 11.1 | 0 | 0 | 0
8 | NCC1CC(=O)N(Cc2ccccc2)C1 (stereo unspecified) [NEBRACETAM] | 0 | 0 | 1 | 0 | 0 | 0 | 0 | 0 | 0 | 0 | 11.1 | 0 | 0 | 0
9 | CCCc1c2oc(C(=O)O)cc(=O)c2cc2c(=O)cc(C(=O)O)n(CC)c12 [NEDOCROMIL] | 0 | 0 | 2 | 0 | 0 | 0 | 0 | 0 | 0 | 0 | 3.3 | 0 | 0 | 0
